# Reference: US20260240163A1, “HERBICIDAL COMBINATIONS AND A METHOD FOR CONTROLLING UNDESIRED VEGETATION” (UPL Mauritius Limited, priority 2022, published 2026)
# Test system: Euphorbia heterophylla
# Experiment: Post-emergence herbicidal efficacy trials; expected efficacy by Colby method
# Format: in vivo
# Conditions: for Observed efficacy (%) of L-glufosinate ammonium (150 g a.i./ha): Table 11
# Protocol: Methodology: Trials were conducted to evaluate the efficacy of the combinations comprising L-glufosinate ammonium and the additional herbicides on Euphorbia genus weeds.
# The soil used was sandy clay loam-sand: 68.0%; silt: 8.0%; clay: 24.0%.
# All treatments were in 4 replications per treatment with a spray volume of about 150 L/ha.
# Efficacy Evaluation: The expected efficacy of the combination comprising L-glufosinate ammonium and additional herbicides was calculated using the well-established Colby method.
# In the Colby method, the expected (or predicted) response of a combination of herbicides is calculated by taking the product of the observed response for each individual component of the combination when applied alone, divided by 100, and subtracting this value from the sum of the observed response for each component when applied alone. An unexpected enhancement in efficacy of the combination is then determined by comparing the observed response of the combination to the expected (or predicted) response as calculated from the observed response of each individual component alone. If the observed response of the combination is greater than the expected (or predicted) response, or stated conversely, if the difference between the observed and expected response is greater than zero, then the combination is said to be synergistic or unexpectedly effective (Colby, S. R., Weeds, 1967 (15), p. 20-22). The Colby method requires only a single dose of each herbicide applied alone and the mixture of both doses. The formula used to calculate the expected efficacy (EE) which was compared with the observed efficacy (OE) to determine the efficacy of the present disclosure is explained hereinbelow:
# The expected efficacy for a combination of two active ingredients is as follows:
# wherein, • A=Observed efficacy of active ingredient A at the same concentration as used in the mixture. • B=Observed efficacy of the active ingredient B at the same concentration as used in the mixture.
compound,measurement,setting,value
COc1c(Cl)ccc(-c2nc(C(=O)OCc3ccccc3)c(Cl)c(N)c2F)c1F [Florpyrauxifen-benzyl],Observed efficacy (%) of Florpyrauxifen-benzyl (15 g a.i./ha),7 DAA,65%
same,Observed efficacy (%) of Florpyrauxifen-benzyl (15 g a.i./ha),14 DAA,90%
CCN(CC)C(=O)C(C)Oc1cccc2ccccc12 (stereo not drawn) [Napropamide],Observed efficacy (%) of Napropamide (675 g a.i./ha),7 DAA,20%
same,Observed efficacy (%) of Napropamide (675 g a.i./ha),14 DAA,10%
same,Observed efficacy (%) of Napropamide (675 g a.i./ha),21 DAA,0%
same,Observed efficacy (%) of Napropamide (675 g a.i./ha),28 DAA,0%
"C[N+](C)(C)CCO.O=C([O-])COc1ccc(Cl)cc1Cl [2,4-D choline, 2,4-dichlorophenoxyacetic acid (2,4-D) choline]","Observed efficacy (%) of 2,4-D choline (228 g a.i./ha)",14 DAA,30%
same,"Observed efficacy (%) of 2,4-D choline (228 g a.i./ha)",21 DAA,30%
CSc1nnc(C(C)(C)C)c(=O)n1N [Metribuzin],Observed efficacy (%) of Metribuzin (360 g a.i./ha),7 DAA,41.9%
same,Observed efficacy (%) of Metribuzin (360 g a.i./ha),14 DAA,38.1%
same,Observed efficacy (%) of Metribuzin (360 g a.i./ha),21 DAA,29.4%
same,Observed efficacy (%) of Metribuzin (360 g a.i./ha),28 DAA,12.5%
CP(=O)(O)CC[C@H](N)C(=O)O.N [L-glufosinate ammonium],Observed efficacy (%) of L-glufosinate ammonium (Glufosinate-P-ammonium) (150 g a.i./ha),"7 DAA, Table 6",95%
same,Observed efficacy (%) of L-glufosinate ammonium (Glufosinate-P-ammonium) (150 g a.i./ha),"7 DAA, Table 7",95%
same,Observed efficacy (%) of L-glufosinate ammonium (Glufosinate-P-ammonium) (150 g a.i./ha),"7 DAA, Table 8",95%
same,Observed efficacy (%) of L-glufosinate ammonium (Glufosinate-P-ammonium) (150 g a.i./ha),"7 DAA, Table 9",95%
same,Observed efficacy (%) of L-glufosinate ammonium (Glufosinate-P-ammonium) (150 g a.i./ha),"7 DAA, Table 10",95%
same,Observed efficacy (%) of L-glufosinate ammonium (Glufosinate-P-ammonium) (150 g a.i./ha),"14 DAA, Table 6",98%
same,Observed efficacy (%) of L-glufosinate ammonium (Glufosinate-P-ammonium) (150 g a.i./ha),"14 DAA, Table 7",98%
same,Observed efficacy (%) of L-glufosinate ammonium (Glufosinate-P-ammonium) (150 g a.i./ha),"14 DAA, Table 9",93.5%
same,Observed efficacy (%) of L-glufosinate ammonium (Glufosinate-P-ammonium) (150 g a.i./ha),"14 DAA, Table 10",93.5%
same,Observed efficacy (%) of L-glufosinate ammonium (150 g a.i./ha),14 DAA,98%
same,Observed efficacy (%) of L-glufosinate ammonium (Glufosinate-P-ammonium) (150 g a.i./ha),"21 DAA, Table 9",88.8%
same,Observed efficacy (%) of L-glufosinate ammonium (Glufosinate-P-ammonium) (150 g a.i./ha),"21 DAA, Table 10",88.8%
same,Observed efficacy (%) of L-glufosinate ammonium (150 g a.i./ha),21 DAA,98%
same,Observed efficacy (%) of L-glufosinate ammonium (Glufosinate-P-ammonium) (150 g a.i./ha),"28 DAA, Table 9",93.1%
same,Observed efficacy (%) of L-glufosinate ammonium (Glufosinate-P-ammonium) (150 g a.i./ha),"28 DAA, Table 10",93.1%
CCOc1cc(Oc2ccc(C(F)(F)F)cc2Cl)ccc1[N+](=O)[O-] [Oxyfluorfen],Observed efficacy (%) of Oxyfluorfen (430 g a.i./ha),"430 g a.i./ha, 7 DAA",75%
COc1c(Cl)ccc(Cl)c1C(=O)O [Dicamba],Observed efficacy (%) of Dicamba (228 g a.i./ha),7 DAA,45%
same,Observed efficacy (%) of Dicamba (228 g a.i./ha),14 DAA,40%
